Laboratory results from patent US11834453B2, “Substituted pyrimido[5,4-d]pyrimidines as HER2 inhibitors” (Array BioPharma Inc., priority 2020, dated 2023).
pIC50: −log10 of the molar value. Like-named read-outs stand apart in the source and are kept apart here.

How the values were obtained:
[1] = biological target: ErbB2 insYVMA (HER2-YVMA, SEQ ID NO: 2) (Homo sapiens, UniProt P04626, INS775YVMA/P1170A); assay: biochemical; conditions: ErbB2 insYVMA enzyme assay; for IC50: Assay 1 IC50 (nM); for pIC50: read-out: Assay 1 IC50
ErbB2 WT = ErbB2 WT (Homo sapiens (Human), UniProt P04626); assay: ErbB enzyme assay (CisBio HTRF KinEASE-TK), Assay 2; format: biochemical
Summary of the method: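 ErbB2 phosphorylates 250 nM biotin-TK substrate at 1 mM ATP in 25 mM HEPES pH 7.4, 10 mM MgCl2, 0.01% Triton X-100 and 2% DMSO, for 30 min at 22 °C. Product is detected by HTRF with Sa-XL665 and TK-Ab-Cryptate. Percent of control is set by DMSO-only wells and pre-quenched wells.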

EGFR = EGFR (Homo sapiens (Human), UniProt P00533); assay: ErbB enzyme assay (CisBio HTRF KinEASE-TK), Assay 3; format: biochemical
Summary of the method: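 Kinase + 250 nM biotin TK-substrate, 1 mM ATP, cpd (3-fold dil.), HEPES pH 7.4/10 mM MgCl2/0.01% Triton/2% DMSO; 30 min 22 °C. Quench w/ Sa-XL665 + TK-Ab-Cryptate, 1 h, HTRF. IC50 = 50 POC on 4PL fit.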

[2] = biological target: ErbB2 with Exon 20 YVMA insertion (HER2-YVMA) (Homo sapiens (Human), UniProt P04626, INS775YVMA); assay: Cellular phosphorylation assay, constitutive ErbB2 phosphorylation (Y1196) in engineered NIH 3T3 cells, Assay 4; format: cell-based
Summary of the method: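 Engineered NIH 3T3 cells expressing HER2-YVMA treated with compounds 1 h at 37 °C, then formaldehyde-fixed and methanol-permeabilized. pErbB2 Y1196 detected by in-cell infrared immunofluorescence, normalized to GAPDH. IC50 from the normalized curves.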

EGFR wild type (EGFR WT) = EGFR wild type (EGFR WT) (Homo sapiens (Human), UniProt P00533); assay: Cellular phosphorylation assay, EGF-stimulated EGFR phosphorylation in engineered NIH 3T3 cells, Phospho-EGFR DuoSet IC ELISA, Assay 5; format: cell-based
Summary of the method: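 NIH 3T3 cells expressing EGFR WT (20,000/well, attached overnight) were exposed to serially diluted compound for 1 h at 37 °C, then stimulated with 100 ng/ml rEGF for 10 min. Phospho-EGFR in lysates measured by sandwich ELISA optical density; IC50 from curves.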

MDR1 (P-gp) = MDR1 (P-gp) (Homo sapiens (Human), UniProt P08183); assay: MDR1 transfected LLC-PK1 permeability/efflux, Assay 6; conditions: pig
BCRP = BCRP (Homo sapiens (Human), UniProt Q9UNQ0); assay: BCRP transfected MDCKII canine Mdr1 knockout permeability/efflux, Assay 9; conditions: dog
[3] = LLC-PK1, Assay 6 Pe Ratio, efflux ratio Papp(B-A)/Papp(A-B), MDR1 transfected LLC-PK1
[4] = Assay 9 Pe Ratio, efflux ratio Papp(B-A)/Papp(A-B), BCRP transfected MDCKII canine Mdr1 knockout

Chain of MDR1 (P-gp) (P08183 whole entry): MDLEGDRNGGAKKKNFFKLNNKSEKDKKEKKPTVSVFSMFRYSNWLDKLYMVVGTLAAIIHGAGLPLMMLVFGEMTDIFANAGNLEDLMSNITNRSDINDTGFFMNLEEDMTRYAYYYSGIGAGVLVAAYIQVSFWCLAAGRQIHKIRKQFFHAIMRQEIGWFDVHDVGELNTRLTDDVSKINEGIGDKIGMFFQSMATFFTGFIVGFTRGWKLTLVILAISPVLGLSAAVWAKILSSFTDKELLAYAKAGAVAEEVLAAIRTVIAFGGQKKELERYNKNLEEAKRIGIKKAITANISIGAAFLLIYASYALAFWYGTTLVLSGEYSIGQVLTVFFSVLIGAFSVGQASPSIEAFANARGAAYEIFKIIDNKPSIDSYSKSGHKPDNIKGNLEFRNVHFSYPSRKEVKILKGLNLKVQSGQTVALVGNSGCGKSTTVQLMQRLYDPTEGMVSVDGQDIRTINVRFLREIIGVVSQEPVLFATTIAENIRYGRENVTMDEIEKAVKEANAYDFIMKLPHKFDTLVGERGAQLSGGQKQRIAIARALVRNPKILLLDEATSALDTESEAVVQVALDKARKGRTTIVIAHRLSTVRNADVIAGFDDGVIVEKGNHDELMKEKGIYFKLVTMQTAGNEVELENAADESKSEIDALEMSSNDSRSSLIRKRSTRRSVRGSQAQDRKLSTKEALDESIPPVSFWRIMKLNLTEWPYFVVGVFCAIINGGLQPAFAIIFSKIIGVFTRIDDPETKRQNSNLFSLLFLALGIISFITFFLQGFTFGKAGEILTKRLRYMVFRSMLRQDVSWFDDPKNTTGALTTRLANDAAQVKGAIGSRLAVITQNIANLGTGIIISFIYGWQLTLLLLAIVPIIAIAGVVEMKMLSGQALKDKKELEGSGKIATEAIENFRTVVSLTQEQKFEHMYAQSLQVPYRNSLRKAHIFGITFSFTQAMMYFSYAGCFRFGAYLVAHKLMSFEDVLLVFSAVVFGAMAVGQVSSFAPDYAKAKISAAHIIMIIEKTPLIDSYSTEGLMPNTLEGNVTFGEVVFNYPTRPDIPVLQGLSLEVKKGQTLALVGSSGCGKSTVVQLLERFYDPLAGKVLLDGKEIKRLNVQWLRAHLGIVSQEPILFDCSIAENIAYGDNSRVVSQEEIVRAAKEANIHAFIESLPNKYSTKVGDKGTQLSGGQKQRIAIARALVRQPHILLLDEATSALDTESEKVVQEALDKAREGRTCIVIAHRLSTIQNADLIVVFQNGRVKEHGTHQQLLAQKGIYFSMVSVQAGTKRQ
Chain of ErbB2 WT (P04626 23-1255): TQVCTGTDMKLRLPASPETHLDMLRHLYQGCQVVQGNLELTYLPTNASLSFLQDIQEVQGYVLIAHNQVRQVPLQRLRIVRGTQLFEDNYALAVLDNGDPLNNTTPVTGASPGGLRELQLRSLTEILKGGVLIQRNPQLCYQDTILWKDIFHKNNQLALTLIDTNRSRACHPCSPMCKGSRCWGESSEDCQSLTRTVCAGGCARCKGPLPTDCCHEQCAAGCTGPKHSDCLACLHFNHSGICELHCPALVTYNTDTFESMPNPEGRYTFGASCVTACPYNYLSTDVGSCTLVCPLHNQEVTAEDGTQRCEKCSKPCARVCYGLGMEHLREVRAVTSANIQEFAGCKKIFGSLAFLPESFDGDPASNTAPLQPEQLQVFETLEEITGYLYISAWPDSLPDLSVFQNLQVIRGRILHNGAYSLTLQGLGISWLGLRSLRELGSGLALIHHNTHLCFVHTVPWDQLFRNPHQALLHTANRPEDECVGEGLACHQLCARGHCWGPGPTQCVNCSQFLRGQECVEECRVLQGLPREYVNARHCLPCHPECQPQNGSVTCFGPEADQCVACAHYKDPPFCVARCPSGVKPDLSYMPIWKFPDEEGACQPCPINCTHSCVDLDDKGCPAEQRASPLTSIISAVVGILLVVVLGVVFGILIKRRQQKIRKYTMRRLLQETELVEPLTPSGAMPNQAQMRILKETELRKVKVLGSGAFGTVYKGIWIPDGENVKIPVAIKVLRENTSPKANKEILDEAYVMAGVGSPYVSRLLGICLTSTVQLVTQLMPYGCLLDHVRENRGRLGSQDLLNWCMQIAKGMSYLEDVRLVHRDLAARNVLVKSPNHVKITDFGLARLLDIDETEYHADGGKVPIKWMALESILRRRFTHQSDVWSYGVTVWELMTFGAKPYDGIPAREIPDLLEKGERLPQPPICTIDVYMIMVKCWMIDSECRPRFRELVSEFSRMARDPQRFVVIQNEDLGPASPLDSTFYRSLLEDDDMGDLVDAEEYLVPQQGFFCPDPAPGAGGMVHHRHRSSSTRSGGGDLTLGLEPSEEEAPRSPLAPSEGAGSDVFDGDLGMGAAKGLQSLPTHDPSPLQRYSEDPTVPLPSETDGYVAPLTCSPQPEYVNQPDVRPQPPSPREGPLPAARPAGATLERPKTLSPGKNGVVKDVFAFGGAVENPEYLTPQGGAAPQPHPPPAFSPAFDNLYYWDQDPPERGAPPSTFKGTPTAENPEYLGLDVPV
Chain of BCRP (Q9UNQ0 whole entry): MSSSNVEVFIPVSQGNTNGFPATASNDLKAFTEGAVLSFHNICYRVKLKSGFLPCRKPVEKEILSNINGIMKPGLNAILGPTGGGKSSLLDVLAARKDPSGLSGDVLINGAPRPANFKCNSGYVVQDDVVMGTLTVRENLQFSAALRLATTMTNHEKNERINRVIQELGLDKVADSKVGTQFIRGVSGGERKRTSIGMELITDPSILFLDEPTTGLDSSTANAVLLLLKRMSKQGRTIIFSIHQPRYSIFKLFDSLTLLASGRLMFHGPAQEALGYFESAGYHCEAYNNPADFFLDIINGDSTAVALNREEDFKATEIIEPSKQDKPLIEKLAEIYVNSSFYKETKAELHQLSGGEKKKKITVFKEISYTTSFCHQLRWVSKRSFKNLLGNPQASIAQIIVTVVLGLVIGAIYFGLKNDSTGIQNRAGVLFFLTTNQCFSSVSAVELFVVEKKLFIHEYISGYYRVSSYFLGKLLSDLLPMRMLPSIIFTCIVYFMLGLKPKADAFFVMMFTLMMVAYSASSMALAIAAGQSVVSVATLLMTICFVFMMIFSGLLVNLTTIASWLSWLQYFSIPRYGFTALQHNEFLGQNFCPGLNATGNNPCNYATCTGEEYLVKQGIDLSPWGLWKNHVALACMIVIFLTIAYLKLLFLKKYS
Chain of EGFR wild type (EGFR WT) (P00533 25-1210): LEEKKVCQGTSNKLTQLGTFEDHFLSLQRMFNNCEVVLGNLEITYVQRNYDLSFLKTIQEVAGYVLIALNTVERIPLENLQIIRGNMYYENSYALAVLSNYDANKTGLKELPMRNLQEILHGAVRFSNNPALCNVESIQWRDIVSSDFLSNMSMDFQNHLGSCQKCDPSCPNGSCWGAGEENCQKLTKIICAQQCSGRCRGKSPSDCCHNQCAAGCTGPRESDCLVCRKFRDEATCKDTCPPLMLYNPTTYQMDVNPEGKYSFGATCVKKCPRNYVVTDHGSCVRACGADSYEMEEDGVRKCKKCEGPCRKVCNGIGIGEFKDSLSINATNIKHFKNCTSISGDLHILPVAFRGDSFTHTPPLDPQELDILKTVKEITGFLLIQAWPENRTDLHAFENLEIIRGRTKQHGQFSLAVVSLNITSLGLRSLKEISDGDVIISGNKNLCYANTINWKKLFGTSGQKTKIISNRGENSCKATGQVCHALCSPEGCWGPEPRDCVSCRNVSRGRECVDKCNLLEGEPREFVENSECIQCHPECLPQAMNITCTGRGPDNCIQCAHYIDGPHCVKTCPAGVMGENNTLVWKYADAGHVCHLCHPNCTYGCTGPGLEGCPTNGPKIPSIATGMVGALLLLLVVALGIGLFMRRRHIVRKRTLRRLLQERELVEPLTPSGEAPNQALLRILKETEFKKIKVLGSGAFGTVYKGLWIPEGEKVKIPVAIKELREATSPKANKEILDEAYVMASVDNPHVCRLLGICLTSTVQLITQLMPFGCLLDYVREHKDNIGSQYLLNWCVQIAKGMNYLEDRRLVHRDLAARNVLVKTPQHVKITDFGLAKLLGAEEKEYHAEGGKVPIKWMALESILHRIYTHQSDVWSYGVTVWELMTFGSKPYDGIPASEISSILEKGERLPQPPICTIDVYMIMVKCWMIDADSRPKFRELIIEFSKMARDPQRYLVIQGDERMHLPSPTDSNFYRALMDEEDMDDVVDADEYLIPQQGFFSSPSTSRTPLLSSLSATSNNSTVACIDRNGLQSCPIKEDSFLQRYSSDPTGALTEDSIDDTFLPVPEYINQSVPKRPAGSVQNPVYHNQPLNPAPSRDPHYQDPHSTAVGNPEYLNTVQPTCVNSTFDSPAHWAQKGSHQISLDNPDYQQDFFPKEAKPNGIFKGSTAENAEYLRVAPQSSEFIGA

| Compound | IC50 [1] | pIC50 (ErbB2 WT) | pIC50 (EGFR) | pIC50 [2] | pIC50 (EGFR wild type (EGFR WT)) | efflux ratio at 2 h, 1 μM (MDR1 (P-gp); [3]) | efflux ratio at 2 h, 1 μM (BCRP; [4]) | pIC50 [1] | efflux ratio at 2 h, 1 μM (MDR1 (P-gp); LLC-PK1) | efflux ratio at 2 h, 1 μM (BCRP) |
| --- | --- | --- | --- | --- | --- | --- | --- | --- | --- | --- |
| Cc1cc(Nc2ncnc3cnc(N4CCOCC4)nc23)c(F)cc1Oc1ccc2c(c1)ncn2C.O=C(O)C(F)(F)F [Example 78, N-(2-fluoro-5-methyl-4-((1-methyl-1H-benzo[d]imidazol-5-yl)oxy)phenyl)-6-morpholinopyrimido[5,4-d]pyrimidin-4-amine 2,2,2-trifluoroacetate] | 60.4 nM | 6.37 | ≤ 5.00 | 7.44 | ≤ 5.30 | 1.3 | 1.1 | – | – | – |
| Cc1cc(Nc2ncnc3cnc(N4C(C)CCS4(=O)=O)nc23)ccc1Oc1ccc2c(c1)ncn2C.O=C(O)C(F)(F)F (stereo not drawn) [Example 79, 3-methyl-2-(8-((3-methyl-4-((1-methyl-1H-benzo[d]imidazol-5-yl)oxy)phenyl)amino)pyrimido[5,4-d]pyrimidin-2-yl)isothiazolidine 1,1-dioxide 2,2,2-trifluoroacetate] | 26.3 nM | 7.47 | 5.46 | 8.11 | ≤ 5.30 | 7.1 | 9.8 | – | – | – |
| Cn1cnc2cc(Oc3ccc(Nc4ncnc5cnc(N6CCOCC6)nc45)cc3F)ccc21.O=C(O)C(F)(F)F [Example 80, N-(3-fluoro-4-((1-methyl-1H-benzo[d]imidazol-5-yl)oxy)phenyl)-6-morpholinopyrimido[5,4-d]pyrimidin-4-amine 2,2,2-trifluoroacetate] | 35.6 nM | 6.37 | ≤ 5.00 | 7.33 | ≤ 5.30 | 2.1 | 2.4 | – | – | – |
| CNc1ncc2ncnc(Nc3ccc(Oc4cc(F)c5c(c4)ncn5C)c(C)c3)c2n1 [Example 88, N8-(4-((7-fluoro-1-methyl-1H-benzo[d]imidazol-5-yl)oxy)-3-methylphenyl)-N2-methylpyrimido[5,4-d]pyrimidine-2,8-diamine] | – | 8.07 | 5.02 | 8.29 | ≤ 5.30 | 1.9 | 1 | 8.32 | – | – |
| Cc1cc(Nc2ncnc3cnc(N4CCO[C@H]5C[C@H]54)nc23)ccc1Oc1ccc2c(c1)ncn2C [Example 161, 6-((1S,6R)-2-oxa-5-azabicyclo[4.1.0]heptan-5-yl)-N-(3-methyl-4-((1-methyl-1H-benzo[d]imidazol-5-yl)oxy)phenyl)pyrimido[5,4-d]pyrimidin-4-amine] | – | 7.54 | 5.08 | 7.80 | ≤ 5.30 | 1.8 | 1.2 | 7.74 | – | – |
| Cc1cc(Nc2ncnc3cnc(N(C)CC(C)(C)O)nc23)ccc1Oc1ccc2c(c1)ncn2C [Example 163, 2-methyl-1-(methyl(8-((3-methyl-4-((1-methyl-1H-benzo[d]imidazol-5-yl)oxy)phenyl)amino)pyrimido[5,4-d]pyrimidin-2-yl)amino)propan-2-ol] | – | 7.43 | 5.35 | 7.67 | ≤ 5.30 | 1.8 | 2.7 | 7.55 | – | – |
| Cc1cc(Nc2ncnc3cnc(N4C[C@H]5C[C@@H]4CO5)nc23)ccc1Oc1cc(F)c2c(c1)ncn2C [Example 204, 6-((1R,4R)-2-oxa-5-azabicyclo[2.2.1]heptan-5-yl)-N-(4-((7-fluoro-1-methyl-1H-benzo[d]imidazol-5-yl)oxy)-3-methylphenyl)pyrimido[5,4-d]pyrimidin-4-amine] | – | 6.97 | 5.09 | 7.88 | ≤ 5.30 | 1.3 | 1.2 | 7.50 | – | – |
| Cc1cc(Nc2ncnc3cnc(NCC(F)F)nc23)ccc1Oc1cc(F)c2c(c1)ncn2C [Example 207, N2-(2,2-difluoroethyl)-N8-(4-((7-fluoro-1-methyl-1H-benzo[d]imidazol-5-yl)oxy)-3-methylphenyl)pyrimido[5,4-d]pyrimidine-2,8-diamine] | – | 7.35 | 5.76 | 7.77 | ≤ 5.30 | 1.6 | 1.7 | 7.65 | – | – |
| Cc1cc(Nc2ncnc3cnc(N4CCC45COC5)nc23)ccc1Oc1cc(F)c2c(c1)ncn2C [Example 216, N-(4-((7-fluoro-1-methyl-1H-benzo[d]imidazol-5-yl)oxy)-3-methylphenyl)-6-(6-oxa-1-azaspiro[3.3]heptan-1-yl)pyrimido[5,4-d]pyrimidin-4-amine] | – | 7.31 | 5.63 | 7.80 | ≤ 5.30 | – | – | 7.48 | 1.7 | 0.9 |
| Cc1cc(Nc2ncnc3cnc(N4CCCC4)nc23)ccc1Oc1ccc2c(c1)ncn2C [Example 222] | – | 7.39 | ≤ 5.00 | 7.41 | ≤ 5.30 | 1 | 1.6 | 7.46 | – | – |
| Cc1ncc(-c2ncc3ncnc(Nc4ccc(Oc5ccc6c(c5)ncn6C)c(C)c4)c3n2)o1 [Example 223] | – | 7.00 | ≤ 5.00 | 7.90 | ≤ 5.30 | 1.9 | 3.7 | 7.04 | – | – |
| Cc1cc(Nc2ncnc3cnc(-c4cnsc4)nc23)ccc1Oc1ccc2c(c1)ncn2C [Example 228] | – | 6.57 | ≤ 5.00 | 7.62 | ≤ 5.30 | 1.1 | 1 | 6.94 | – | – |
| Cc1cc(Nc2ncnc3cnc(-c4cccnc4)nc23)ccc1Oc1ccc2c(c1)ncn2C [Example 233] | – | 7.38 | 5.43 | 7.80 | ≤ 5.30 | 1.5 | 1.6 | 7.56 | – | – |
| Cc1cc(Nc2ncnc3cnc(N4CC5C(C4)C5(F)F)nc23)ccc1Oc1ccc2c(c1)ncn2C (stereo not drawn) [Example 234] | – | 6.78 | ≤ 5.00 | 7.41 | ≤ 5.30 | 1.8 | 5.2 | 6.98 | – | – |
| Cc1cc(Nc2ncnc3cnc(-c4ccccn4)nc23)ccc1Oc1ccc2c(c1)ncn2C [Example 239] | – | 6.97 | ≤ 5.00 | 8.04 | ≤ 5.30 | 2.1 | 3.5 | 6.90 | – | – |
| Cc1nc(-c2ncc3ncnc(Nc4ccc(Oc5ccc6c(c5)ncn6C)c(C)c4)c3n2)cs1 [Example 247] | – | 7.01 | ≤ 5.00 | 8.46 | ≤ 5.30 | 1.6 | 4.7 | 7.09 | – | – |
| Cc1cc(Nc2ncnc3cnc(N4CCC[C@H]4C(F)(F)F)nc23)ccc1Oc1ccc2c(c1)ncn2C [Example 249] | – | 7.63 | ≤ 5.00 | 7.43 | ≤ 5.30 | 0.3 | 3 | 7.44 | – | – |
| Cc1cc(Nc2ncnc3cnc(N4CC[C@H](C(F)F)C4)nc23)ccc1Oc1ccc2c(c1)ncn2C [Example 252] | – | 6.62 | ≤ 5.00 | 7.59 | ≤ 5.30 | 0.7 | 2.6 | 7.03 | – | – |
